Reference: patent US20080176936A1, “Classes of Compounds that Interact with Integrins” (priority 2005, published 2008)

Key:
αVβ3 integrin = molecular target: T1, αVβ3 integrin (Homo sapiens, UniProt P05106+P06756); assay: ELISA: inhibition of binding of αVβ3 integrin (source WM-115 cell line) to coated extracellular matrix protein; conditions: WM-115 cell line as integrin source
T1 construct: the cell line WM-115 was used as a source of αVβ3 integrin; endogenous in cells; host or cells: WM-115 cell line
T1 sequence (P06756 31-889 limits assumed): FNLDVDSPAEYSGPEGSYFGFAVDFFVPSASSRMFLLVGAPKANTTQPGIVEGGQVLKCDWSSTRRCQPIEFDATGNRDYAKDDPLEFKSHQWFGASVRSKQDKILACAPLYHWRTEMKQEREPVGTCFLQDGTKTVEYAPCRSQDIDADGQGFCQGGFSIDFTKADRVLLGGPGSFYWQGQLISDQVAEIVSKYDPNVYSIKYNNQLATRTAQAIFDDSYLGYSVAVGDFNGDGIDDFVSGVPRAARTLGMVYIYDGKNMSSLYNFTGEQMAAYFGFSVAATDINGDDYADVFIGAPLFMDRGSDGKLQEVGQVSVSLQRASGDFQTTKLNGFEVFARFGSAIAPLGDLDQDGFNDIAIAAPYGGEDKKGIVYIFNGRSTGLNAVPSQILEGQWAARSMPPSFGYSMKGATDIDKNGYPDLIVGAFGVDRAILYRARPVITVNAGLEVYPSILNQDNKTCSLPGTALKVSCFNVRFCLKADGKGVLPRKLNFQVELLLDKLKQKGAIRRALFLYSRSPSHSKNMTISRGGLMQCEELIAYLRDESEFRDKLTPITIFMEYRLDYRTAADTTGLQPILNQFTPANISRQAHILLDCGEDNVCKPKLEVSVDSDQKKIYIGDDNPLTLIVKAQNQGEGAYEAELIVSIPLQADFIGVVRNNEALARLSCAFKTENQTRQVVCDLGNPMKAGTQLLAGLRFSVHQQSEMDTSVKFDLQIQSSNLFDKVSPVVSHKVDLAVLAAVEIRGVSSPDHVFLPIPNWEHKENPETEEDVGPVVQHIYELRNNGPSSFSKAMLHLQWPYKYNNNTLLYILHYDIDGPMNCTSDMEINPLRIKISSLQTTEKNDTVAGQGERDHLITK
T1 sequence (P06756 891-1048 partner limits assumed): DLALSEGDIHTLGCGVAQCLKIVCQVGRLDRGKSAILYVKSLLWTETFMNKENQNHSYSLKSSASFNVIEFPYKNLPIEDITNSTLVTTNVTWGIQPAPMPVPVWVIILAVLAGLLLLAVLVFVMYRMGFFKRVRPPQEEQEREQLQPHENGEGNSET
T1 sequence (P05106 27-788): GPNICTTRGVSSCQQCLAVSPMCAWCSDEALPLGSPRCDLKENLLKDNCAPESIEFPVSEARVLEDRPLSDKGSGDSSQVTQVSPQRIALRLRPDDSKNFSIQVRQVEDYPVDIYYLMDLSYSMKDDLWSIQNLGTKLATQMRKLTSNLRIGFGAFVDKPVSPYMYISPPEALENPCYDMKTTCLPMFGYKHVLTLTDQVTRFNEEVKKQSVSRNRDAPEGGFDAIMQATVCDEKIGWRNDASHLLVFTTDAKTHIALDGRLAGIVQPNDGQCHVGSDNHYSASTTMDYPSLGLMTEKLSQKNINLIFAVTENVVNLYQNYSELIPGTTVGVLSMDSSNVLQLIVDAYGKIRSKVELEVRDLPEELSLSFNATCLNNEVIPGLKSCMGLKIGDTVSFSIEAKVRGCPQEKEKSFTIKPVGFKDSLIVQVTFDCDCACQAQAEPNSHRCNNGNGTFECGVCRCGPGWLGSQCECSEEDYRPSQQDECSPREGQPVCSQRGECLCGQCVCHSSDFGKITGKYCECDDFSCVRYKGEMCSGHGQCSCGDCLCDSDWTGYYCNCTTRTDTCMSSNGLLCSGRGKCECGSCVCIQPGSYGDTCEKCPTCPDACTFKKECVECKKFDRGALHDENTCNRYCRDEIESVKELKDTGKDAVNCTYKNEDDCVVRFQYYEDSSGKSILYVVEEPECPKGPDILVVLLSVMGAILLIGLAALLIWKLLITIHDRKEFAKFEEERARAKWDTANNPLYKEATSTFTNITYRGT
Summary of the method: (§1)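 Wells were coated with fibrinogen or vitronectin (10 µg/well), and integrin binding was measured by ELISA. αIIbβ3 came from human platelet membranes and αVβ3 from WM-115 cells, each preincubated with compound. Bound integrin was detected with a rabbit anti-β3 antibody, an HRP secondary and a colorimetric readout.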

αllbβ3 integrin = molecular target: T2, αllbβ3 integrin (Homo sapiens, UniProt P05106+P08514); assay: ELISA: inhibition of binding of αllbβ3 integrin membrane preparation to coated extracellular matrix protein; conditions: human platelet membrane preparation
T2 construct: Human platelet membrane preparations were used as a source of αllbβ3 integrin; from tissue; host or cells: human platelets (membrane preparation)
T2 sequence (P08514 32-887 limits assumed): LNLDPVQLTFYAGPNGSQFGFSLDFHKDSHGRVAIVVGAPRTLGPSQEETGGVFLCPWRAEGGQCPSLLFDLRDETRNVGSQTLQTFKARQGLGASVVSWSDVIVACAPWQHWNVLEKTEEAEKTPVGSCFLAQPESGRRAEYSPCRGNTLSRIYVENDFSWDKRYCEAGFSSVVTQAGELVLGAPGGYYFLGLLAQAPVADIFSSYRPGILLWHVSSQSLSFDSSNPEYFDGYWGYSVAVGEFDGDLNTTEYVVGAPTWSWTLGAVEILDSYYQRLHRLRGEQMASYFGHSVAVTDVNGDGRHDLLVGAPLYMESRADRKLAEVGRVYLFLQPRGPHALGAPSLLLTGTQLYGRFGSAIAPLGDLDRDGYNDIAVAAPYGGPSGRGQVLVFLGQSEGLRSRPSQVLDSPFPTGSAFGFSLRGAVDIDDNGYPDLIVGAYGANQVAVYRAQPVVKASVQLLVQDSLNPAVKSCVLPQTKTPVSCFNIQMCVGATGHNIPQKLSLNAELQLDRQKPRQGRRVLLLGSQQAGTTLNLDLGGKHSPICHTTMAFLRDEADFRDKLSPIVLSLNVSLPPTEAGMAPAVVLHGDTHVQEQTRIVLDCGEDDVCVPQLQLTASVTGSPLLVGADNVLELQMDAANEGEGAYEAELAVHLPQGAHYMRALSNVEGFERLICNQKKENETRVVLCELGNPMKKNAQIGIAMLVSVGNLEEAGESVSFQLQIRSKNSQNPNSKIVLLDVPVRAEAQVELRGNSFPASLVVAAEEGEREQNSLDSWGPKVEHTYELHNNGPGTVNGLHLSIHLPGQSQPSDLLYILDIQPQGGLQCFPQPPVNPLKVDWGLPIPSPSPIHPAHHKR
T2 sequence (P08514 891-1039 partner limits assumed): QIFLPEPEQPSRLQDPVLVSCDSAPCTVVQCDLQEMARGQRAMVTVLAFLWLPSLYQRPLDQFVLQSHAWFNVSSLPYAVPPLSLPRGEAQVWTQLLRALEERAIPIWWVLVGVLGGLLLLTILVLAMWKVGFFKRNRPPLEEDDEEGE
T2 sequence (P05106 27-788): as the sequence (P05106 27-788) above
Summary of the method: as §1

| SMILES | INHIBITION 250 uM RECEPTOR aVb3 SUBSTRATE FIBRINOGEN (αVβ3 integrin) | INHIBITION @ 250 uM RECEPTOR allBb3 SUBSTRATE FIBRINOGEN (αllbβ3 integrin) | INHIBITION 250 uM RECEPTOR allBb3 SUBSTRATE VITRONECTIN (αllbβ3 integrin) |
| --- | --- | --- | --- |
| Nc1cccc(COC2C(O)C(COCc3ccc(Br)cc3)OC(O)C2NC(=O)c2ccc(C(=O)O)cc2)c1 (single isomer, unassigned) [Compound 74] | − (0% to 35% inhibition at 250 micromolar) | − (0% to 35% inhibition at 250 micromolar) | +++ (81% to 100% inhibition at 250 micromolar) |
| Nc1cccc(COC2C(O)C(COCc3ccc(Br)cc3)OC(O)C2NC(=O)c2ccc(C(=O)O)cc2)c1 (single isomer, unassigned) [Compound 75] | − (0% to 35% inhibition at 250 micromolar) | + (36% to 60% inhibition at 250 micromolar) | +++ (81% to 100% inhibition at 250 micromolar) |
| CCOC1OC(COCC(=O)O)C(O)C(OCc2cccc(N)c2)C1NC(=O)c1ccc(Cl)cc1 (single isomer, unassigned) [Compound 76] | − (0% to 35% inhibition at 250 micromolar) | − (0% to 35% inhibition at 250 micromolar) | − (0% to 35% inhibition at 250 micromolar) |
| CCOC1OC(COCC(=O)O)C(O)C(OCc2cccc(N)c2)C1NC(=O)c1ccc(Cl)cc1 (single isomer, unassigned) [Compound 77] | + (36% to 60% inhibition at 250 micromolar) | ++ (61% to 80% inhibition at 250 micromolar) | +++ (81% to 100% inhibition at 250 micromolar) |
| CCOC1OC(COCc2ccc(C(=O)O)cc2)C(O)C(OCc2cccc(N)c2)C1NC(=O)c1ccc(Cl)cc1 (single isomer, unassigned) [Compound 78] | +++ (81% to 100% inhibition at 250 micromolar) | − (0% to 35% inhibition at 250 micromolar) | +++ (81% to 100% inhibition at 250 micromolar) |
| CCOC1OC(COCc2ccc(C(=O)O)cc2)C(O)C(OCc2cccc(N)c2)C1NC(=O)c1ccc(Cl)cc1 (single isomer, unassigned) [Compound 79] | +++ (81% to 100% inhibition at 250 micromolar) | + (36% to 60% inhibition at 250 micromolar) | +++ (81% to 100% inhibition at 250 micromolar) |
| Nc1cccc(COC2C(O)C(COCc3ccc(C(=O)O)cc3)OC(O)C2NC(=O)c2ccc(Cl)cc2)c1 (single isomer, unassigned) [Compound 81] | +++ (81% to 100% inhibition at 250 micromolar) | + (36% to 60% inhibition at 250 micromolar) | +++ (81% to 100% inhibition at 250 micromolar) |
| Nc1cccc(COC2C(O)C(COCc3ccc(C(=O)O)cc3)OC(O)C2NC(=O)c2ccc(Cl)cc2)c1 (single isomer, unassigned) [Compound 82] | ++ (61% to 80% inhibition at 250 micromolar) | ++ (61% to 80% inhibition at 250 micromolar) | + (36% to 60% inhibition at 250 micromolar) |
| CCOC1C(O)C(COCC(=O)O)OC(OCc2ccccc2)C1NC(=O)c1cccc(N)c1 (single isomer, unassigned) [Compound 84] | − (0% to 35% inhibition at 250 micromolar) | − (0% to 35% inhibition at 250 micromolar) | − (0% to 35% inhibition at 250 micromolar) |
| CCOC1C(O)C(COCC(=O)O)OC(OCc2ccccc2)C1NC(=O)c1cccc(N)c1 (single isomer, unassigned) [Compound 85] | − (0% to 35% inhibition at 250 micromolar) | − (0% to 35% inhibition at 250 micromolar) | +++ (81% to 100% inhibition at 250 micromolar) |
| CCOC1C(O)C(COCc2ccc(C(=O)O)cc2)OC(OCc2ccccc2)C1NC(=O)CCNC(=N)N (single isomer, unassigned) [Compound 86] | − (0% to 35% inhibition at 250 micromolar) | − (0% to 35% inhibition at 250 micromolar) | +++ (81% to 100% inhibition at 250 micromolar) |
| CCOC1C(O)C(COCc2ccc(C(=O)O)cc2)OC(OCc2ccccc2)C1NC(=O)CCNC(=N)N (single isomer, unassigned) [Compound 87] | − (0% to 35% inhibition at 250 micromolar) | − (0% to 35% inhibition at 250 micromolar) | +++ (81% to 100% inhibition at 250 micromolar) |
| CCOC1C(O)C(COCc2cccc(N)c2)OC(OCc2ccccc2)C1NC(=O)CCC(=O)O (single isomer, unassigned) [Compound 88] | − (0% to 35% inhibition at 250 micromolar) | − (0% to 35% inhibition at 250 micromolar) | ++ (61% to 80% inhibition at 250 micromolar) |
| CCOC1C(O)C(COCc2cccc(N)c2)OC(OCc2ccccc2)C1NC(=O)CCC(=O)O (single isomer, unassigned) [Compound 89] | + (36% to 60% inhibition at 250 micromolar) | − (0% to 35% inhibition at 250 micromolar) | +++ (81% to 100% inhibition at 250 micromolar) |
| COCC1OC(OCc2ccccc2)C(NC(=O)CCNC(=N)N)C(OCC(=O)O)C1O (single isomer, unassigned) [Compound 90] | − (0% to 35% inhibition at 250 micromolar) | − (0% to 35% inhibition at 250 micromolar) | +++ (81% to 100% inhibition at 250 micromolar) |
| COCC1OC(OCc2ccccc2)C(NC(=O)CCNC(=N)N)C(OCC(=O)O)C1O (single isomer, unassigned) [Compound 91] | − (0% to 35% inhibition at 250 micromolar) | + (36% to 60% inhibition at 250 micromolar) | + (36% to 60% inhibition at 250 micromolar) |
| CCOCC1OC(OCc2ccccc2)C(NC(=O)CCNC(=N)N)C(OCC(=O)O)C1O (single isomer, unassigned) [Compound 92] | ++ (61% to 80% inhibition at 250 micromolar) | + (36% to 60% inhibition at 250 micromolar) | +++ (81% to 100% inhibition at 250 micromolar) |
| CCOCC1OC(OCc2ccccc2)C(NC(=O)CCNC(=N)N)C(OCC(=O)O)C1O (single isomer, unassigned) [Compound 93] | +++ (81% to 100% inhibition at 250 micromolar) | − (0% to 35% inhibition at 250 micromolar) | +++ (81% to 100% inhibition at 250 micromolar) |
| N=C(N)NCCC(=O)NC1C(OCc2ccccc2)OC(CO)C(O)C1OCC(=O)O (single isomer, unassigned) [Compound 94] | − (0% to 35% inhibition at 250 micromolar) | − (0% to 35% inhibition at 250 micromolar) | + (36% to 60% inhibition at 250 micromolar) |
| CC(=O)NC1C(OCc2ccccc2)OC(COCc2cccc(N)c2)C(O)C1OCC(=O)O (single isomer, unassigned) [Compound 95] | − (0% to 35% inhibition at 250 micromolar) | − (0% to 35% inhibition at 250 micromolar) | ++ (61% to 80% inhibition at 250 micromolar) |
| CC(=O)NC1C(OCc2ccccc2)OC(COCc2cccc(N)c2)C(O)C1OCC(=O)O (single isomer, unassigned) [Compound 96] | − (0% to 35% inhibition at 250 micromolar) | − (0% to 35% inhibition at 250 micromolar) | + (36% to 60% inhibition at 250 micromolar) |
| COCC1OC(OCc2ccccc2)C(NC(=O)CCNC(=N)N)C(OCc2ccc(C(=O)O)cc2)C1O (single isomer, unassigned) [Compound 97] | − (0% to 35% inhibition at 250 micromolar) | − (0% to 35% inhibition at 250 micromolar) | − (0% to 35% inhibition at 250 micromolar) |
| COCC1OC(OCc2ccccc2)C(NC(=O)CCNC(=N)N)C(OCc2ccc(C(=O)O)cc2)C1O (single isomer, unassigned) [Compound 98] | − (0% to 35% inhibition at 250 micromolar) | − (0% to 35% inhibition at 250 micromolar) | +++ (81% to 100% inhibition at 250 micromolar) |
| CCOCC1OC(OCc2ccccc2)C(NC(=O)c2cccc(N)c2)C(OCc2ccc(C(=O)O)cc2)C1O (single isomer, unassigned) [Compound 99] | − (0% to 35% inhibition at 250 micromolar) | − (0% to 35% inhibition at 250 micromolar) | ++ (61% to 80% inhibition at 250 micromolar) |
